Experiments:
Assay type in all cases: cell-based, human
[1] = tested on: bioengineered tripartite vessels; test: Aβ transport across tripartite bioengineered cerebral vessels (ELISA); conditions: for transport of fibrils compared to monomers: tripartite vessels, pre-aggregated (37°C, 48 hr) or monomeric Aβ 1 μM anteluminal
Protocol: Bioengineered constructs were fabricated using a dynamic, semi-pulsatile flow bioreactor system. Tubular biodegradable scaffolds (length 1.5 cm and inner diameter 2 mm) were produced as described ([Robert et al., 2013a]; [Robert et al., 2017]) with minor modifications. Briefly, non-woven polyglycolic acid (PGA, Biomedical Structure, Warwick, RI) meshes (thickness: 1 mm and density: 70 mg/cc) were dip-coated with polycaprolactone (PCL) and polylactate (PLA) by dipping PGA mesh in a solution of 1.75% (w/w) PCL/PLA/tetrahydrofuran (THF) solution (Sigma-Aldrich, St. Louis, MO), shaped into tubes using heat, and externally coated with a 10% PCL/THF (w/w) solution. Scaffolds were sterilized by immersion in 70% ethanol for 30 min followed by three PBS washes and then immersion in advanced DMEM supplemented with 10% FBS for at least 12 hr. UCMFB were seeded at density of 2−3 × 10^6 cells/cm^2 on the inner surface of the scaffold using fibrin (fibrinogen 10 mg clottable protein/ml PBS and thrombin 100–10 mU/ml PBS) as a cell carrier that was added directly to the scaffold, then incubated under static conditions for a minimum of 3 days before exposure to dynamic flow. The flow of nutrient medium (Advanced DMEM supplemented with 10% FBS, 1% L-glutamine and 0.05% Pen/Strep) was directed through the lumen of the bioreactor circulation loop to mimic blood flow for a minimum of one week. Vascular intermediates were then seeded with HUVEC (1 × 10^6 cells/cm^2) and cultivated first in static conditions for a minimum of 5 days in EGM−2 supplemented as above. For bipartite vessels, after the static phase, vascular grafts were placed back in the bioreactor for 14 additional days with increasing medium flow to a final rate of 10 ml/min by the 10th day). For tripartite vessels, after the static phase after HUVEC addition, primary astrocytes were seeded (1 × 10^6 cells/cm^2) using fibrin as a cell carrier as above on the antelumen side of the tissue. After 5 min at RT, grafts were placed under flow conditions with EGM-2 supplemented as above in the circulation chamber and complete astrocyte medium in the tissue chamber for 14 additional days with increasing medium flow to 10 ml/min by the 10th day.
The HFIP was removed by evaporation overnight and stocks were stored at −20°C. On the day of the assay, soluble monomers were prepared by reconstituting the peptide film in DMSO to 5 mM, diluted further to 100 µM in RPMI without FBS. 100 μl of Aβ solution was injected in the tissue chamber containing 900 μl of DMEM (Gibco) without FBS to the desired concentration using a syringe under flow conditions. […] For luminal recovery, 100 μl circulating medium was collected at the indicated time.
All experiments were conducted under an approved clinical protocol (UBC Clinical Ethics Research Board H14-03357). Upon receipt of written informed consent, 100 ml of fasted blood was collected from normolipidemic healthy donors into vacutainer tubes containing EDTA. Plasma HDL (1.063–1.21 g/ml) was isolated by sequential potassium bromide gradient ultracentrifugation as described ([Robert et al., 2013b]). […] Total protein concentration was assessed using the BCA assay (Thermofisher Scientific). Recombinant apoE2 and apoE4 were commercially purchased and solubilized following the manufacture’s instructions (ABCAM, apoE2 ab55210, apoE3 ab123764 and apoE4 ab50243). […] ApoE concentrations were measured using ELISA as previously described ([Fan et al., 2016]). […]

NO synthase = test: NO measurement: conversion of L-3H-arginine to L-3H-citruline in tripartite vessels
Protocol: NO synthesis was measured as described ([Robert et al., 2013a]) using a commercial NOS activity assay kit (Caymenchemical, Ann Arbor, MI). Briefly, a 2–3 mm ring of vascular tissue was mechanically ground in 150 μl of ice cold homogenized buffer (25 mM Tris-Cl, pH7.4, 1 mM EDTA and 1 mM EGTA) and centrifuged 15 min at 4°C at 10,000 g. The supernatant was aliquoted and incubated in reaction buffer containing 25 mM Tris-Cl, pH7.4, 0.25 mM EDTA, 0.6 mM CaCl2, 1 mM NADP, 200 nM calmodulin, 3 µM tetrahydrobiopterin, 1 µM flavin adenine dinucleotide, 1 µM flavin adenine monoucleotide and 0.2 µCi L-^3H-arginine; PerkinElmer, Waltham, MA) in the presence of 10 nM acetylcholine (Ach), 0.2 mg/ml HDL or 1 mM L-NG-nitroarginine methyl ester (L-NAME). After 60 min at 37°C, the reaction was stopped by adding 400 μl of stop buffer ([…] HEPES, 5 mM EDTA, pH 5.5). The solution was loaded onto an ion exchange column equilibrated with stop buffer to separate L-^3H-citruline from L-^3H-arginine. Scintillation mix (Ultimate Gold, PerkinElmer) was added to the supernatant and counted using LS6500 β-counter (Beckman Coulter, Brea, CA). The percent citrulline formed was calculated as follows: % conversion = (cpm reaction-cpm background)/cpm total *100.

[2] = tested on: bioengineered tripartite vessels; test: Aβ accumulation in tripartite bioengineered cerebral vessels (ELISA); conditions: GW3965 0.8 μM 72 hr, HDL 200 μg/ml luminal
Protocol: Bioengineered constructs were fabricated using a dynamic, semi-pulsatile flow bioreactor system. Tubular biodegradable scaffolds (length 1.5 cm and inner diameter 2 mm) were produced as described ([Robert et al., 2013a]; [Robert et al., 2017]) with minor modifications. Briefly, non-woven polyglycolic acid (PGA, Biomedical Structure, Warwick, RI) meshes (thickness: 1 mm and density: 70 mg/cc) were dip-coated with polycaprolactone (PCL) and polylactate (PLA) by dipping PGA mesh in a solution of 1.75% (w/w) PCL/PLA/tetrahydrofuran (THF) solution (Sigma-Aldrich, St. Louis, MO), shaped into tubes using heat, and externally coated with a 10% PCL/THF (w/w) solution. Scaffolds were sterilized by immersion in 70% ethanol for 30 min followed by three PBS washes and then immersion in advanced DMEM supplemented with 10% FBS for at least 12 hr. […]
All experiments were conducted under an approved clinical protocol (UBC Clinical Ethics Research Board H14-03357). […] Total protein concentration was assessed using the BCA assay (Thermofisher Scientific). […] ApoE concentrations were measured using ELISA as previously described ([Fan et al., 2016]). […]

[3] = tested on: apoE secretion by astrocytes; test: Native apoE secretion by astrocytes in tripartite vessels (ELISA); conditions: astrocytes APOE3/E3, GW3965 1 μM circulated through lumen 72 hr
Protocol: All experiments were conducted under an approved clinical protocol (UBC Clinical Ethics Research Board H14-03357). Upon receipt of written informed consent, 100 ml of fasted blood was collected from normolipidemic healthy donors into vacutainer tubes containing EDTA. Plasma HDL (1.063-1.21 g/ml) was isolated by sequential potassium bromide gradient ultracentrifugation as described ([Robert et al., 2013b]). The purity of the HDL preparations was verified by sodium dodecyl sulfate-polyacrylamide gel electrophoresis (SDS-PAGE) followed by Coomassie blue staining to ensure no LDL or albumin contamination (not shown). Total protein concentration was assessed using the BCA assay (Thermofisher Scientific). Recombinant apoE2 and apoE4 were commercially purchased and solubilized following the manufacture's instructions (ABCAM, apoE2 ab55210, apoE3 ab123764 and apoE4 ab50243). […] ApoE concentrations were measured using ELISA as previously described ([Fan et al., 2016]). Briefly, ELISA plates were coated overnight with anti-human apoE mAB […] antibody (MabTech, Cincinnati, OH, RRID: AB_1925746) at 1.55 μg/mL in PBS at 4°C, washed two times with PBST (0.05% Tween 20 in PBS), and blocked with 0.1% Blocker A (MesoScale Discovery, Rockville, MA) in PBST. […] Fluorescence was read after 15 min at RT on an EnSpire 2300 Multilabel Plate Reader (325Ex/420Em).

[4] = tested on: bioengineered bipartite vessels; test: Aβ fibrillization in bioengineered vessels (Thioflavin-S staining, Thioflavin-T quantification)
[5] = tested on: bioengineered bipartite vessels; test: Aβ transport from anteluminal tissue chamber to luminal circulation across bipartite vessels (ELISA); conditions: 1 μM monomers anteluminal, luminal medium sampled over 4 hr
Protocol: Bioengineered constructs were fabricated using a dynamic, semi-pulsatile flow bioreactor system. Tubular biodegradable scaffolds (length 1.5 cm and inner diameter 2 mm) were produced as described ([Robert et al., 2013a]; [Robert et al., 2017]) with minor modifications. Briefly, non-woven polyglycolic acid (PGA, Biomedical Structure, Warwick, RI) meshes (thickness: 1 mm and density: 70 mg/cc) were dip-coated with polycaprolactone (PCL) and polylactate (PLA) by dipping PGA mesh in a solution of 1.75% (w/w) PCL/PLA/tetrahydrofuran (THF) solution (Sigma-Aldrich, St. Louis, MO), shaped into tubes using heat, and externally coated with a 10% PCL/THF (w/w) solution. Scaffolds were sterilized by immersion in 70% ethanol for 30 min followed by three PBS washes and then immersion in advanced DMEM supplemented with 10% FBS for at least 12 hr. UCMFB were seeded at density of 2−3 × 10^6 cells/cm^2 on the inner surface of the scaffold using fibrin (fibrinogen 10 mg clottable protein/ml PBS and thrombin 100–10 mU/ml PBS) as a cell carrier that was added directly to the scaffold, then incubated under static conditions for a minimum of 3 days before exposure to dynamic flow. The flow of nutrient medium (Advanced DMEM supplemented with 10% FBS, 1% L-glutamine and 0.05% Pen/Strep) was directed through the lumen of the bioreactor circulation loop to mimic blood flow for a minimum of one week. […]

[6] = tested on: endothelial barrier of bioengineered vessels; test: Endothelium integrity: Evans blue extravasation; conditions: 0.5% in circulation loop 10 min, PBS wash 20 min
Protocol: Evans blue (Sigma-Aldrich) was injected at a final concentration of 0.5% in the circulation loop of the bioreactor for 10 min followed by continuous PBS washing for 20 min. Vessels were cut open longitudinally and en face preparations were analysed macroscopically with photo documentation. Restriction of paracellular transport was determined by measuring FITC dextran extravasation to the tissue chamber as described ([Gaillard et al., 2001]). […] After 1 hr tissue media was collected, fluorescent was read at RT on an EnSpire 2300 Multilabel Plate Reader (492Ex/518Em) and the permeability coefficient (Papp) was calculated using the following equation: Papp=(dQ/dt)*(1/A*C0*60) where dQ/dt is the amount of FITC-dextran transported per minute (ng/min), A is the surface area of the tissue (cm [[Attems and Jellinger, 2014]]), C0 is the initial concentration of FITC-Dextran (ng/ml) and 60 is the conversion from minutes to seconds.

With “Aβ40 fibrils: Aβ40 incubated at 37°C for 48 hr after reconstitution in RPMI” the “transport of fibrils compared to monomers” value ([1]; over 4 hr) was “significantly slower transport”.

With `COC(=O)[C@@H](N)CCCNC(N)=N[N+](=O)[O-]` [L-NAME, L-NG-nitroarginine methyl ester] the “NO production in the presence of NO synthase inhibitor” value (NO synthase; 1 mM L-NAME with Ach or HDL stimulation, 60 min) was “the conversion was blocked”.

`O=C(O)Cc1cccc(OCCCN(Cc2cccc(C(F)(F)F)c2Cl)CC(c2ccccc2)c2ccccc2)c1` [GW3965] was tested, and the “effect on accumulation of Aβ40 within tripartite tissues after 24 hr” value ([2]; Aβ40 1 μM anteluminal) was “neither GW3965, HDL, nor both GW3965 and HDL affected accumulation”, the “effect on accumulation of Aβ42 within tripartite tissues after 24 hr” value ([2]; Aβ42 1 μM anteluminal) was “neither GW3965, HDL, nor both GW3965 and HDL affected accumulation” and the “secretion of native apoE into medium” value [3] was “significantly stimulated the secretion of native apoE”. The “effect on Aβ40 transport through tripartite vessels over 4 hr” value ([1]; Aβ40 1 μM anteluminal, GW3965 0.8 μM 72 hr, HDL 200 μg/ml luminal) was “neither GW3965 alone nor HDL alone modified the rate” and the “effect on Aβ42 transport through tripartite vessels over 4 hr” value ([1]; Aβ42 1 μM anteluminal, GW3965 0.8 μM 72 hr, HDL 200 μg/ml luminal) was “neither GW3965 alone nor HDL alone modified the rate”.

With “Aβ42 fibrils: Aβ42 incubated at 37°C for 48 hr after reconstitution in RPMI” the “transport of fibrils compared to monomers” value ([1]; over 4 hr) was “significantly slower transport”.

For “Aβ42: Recombinant Aβ42 peptide (California Peptide Research), soluble monomers”, the “beta-sheet formation in tissue lysates (Thioflavin-T)” value ([4]; 1 μM monomers anteluminal, RIPA lysate, 20 μM Thioflavin-T, ex 440 nm / em 490 nm) was “increasing signal over time”, the “Aβ fibrillization in the bioengineered vessels (Thioflavin-S)” value ([4]; monomers 0, 0.1, 1.0 and 10 μM anteluminal, 48 hr, Thioflavin-S staining) was “dose-dependent fibrillization” and the “Aβ transport into circulating medium, bioengineered vessels versus scaffold-only controls” value [5] was “transported at a slower rate”. For the same compound, the “Aβ recovery into circulation medium, tripartite compared to bipartite vessels” value ([1]; 1 μM monomers anteluminal, over 4 hr) was “increased”.

For `Cc1cc(-c2ccc(/N=N/c3ccc4c(S(=O)(=O)O)cc(S(=O)(=O)O)c(N)c4c3O)c(C)c2)ccc1/N=N/c1ccc2c(S(=O)(=O)O)cc(S(=O)(=O)O)c(N)c2c1O` [Evans blue], the “Evans blue penetration into tissue without EC” value ([6]; tissue prepared without EC) was “penetrated into tissue prepared without EC” and the “Evans blue penetration into vessels with endothelium” value ([6]; vessels seeded with EC) was “excluded”.

With `CC(=O)OCC[N+](C)(C)C` [acetylcholine] the “NO production: conversion of L-3H-arginine to L-3H-citruline” value (NO synthase; 10 nM acetylcholine or 200 μg/ml HDL, 60 min at 37°C) was “significant increase”.

Reference: paper PMC5634784, “Clearance of beta-amyloid is facilitated by apolipoprotein E and circulating high-density lipoproteins in bioengineered human vessels” (eLife, 2017)
